Series [1] can be described thus: Dexamethasone in eye tissues and fluids after one 25 μL depot instillation. The settings on record: for concentration at 3 day / concentration at 8 day / concentration at 8 h / concentration at 24 h / concentration at 14 day / concentration at 21 day: female, New Zealand White, rabbit, topical, 25 μL, Dexamethasone; for concentration at 3 day: Day 3; for concentration at 8 day: Day 8; for concentration at 24 h: Hr 24.

Series [2] can be described thus: Dexamethasone level in anterior chamber after 50 μL depot (GLP study). In kind it is in vivo, New Zealand White (NZW) rabbits. To be noted: both sexes, New Zealand White, rabbit, topical. On the procedure:
In a good laboratory practices (GLP) study, depots of 50 μL were instilled into each eye of New Zealand White (NZW) rabbits (either sex, 3.5-4 kilo), and the anterior chamber tapped subsequently and assayed by LCMS.

Series [3] can be described thus: In vitro release of gatifloxacin from liquid depot, samples Gati-90A to F. In kind it is physicochemical. To be noted: for Gatifloxacin cumulative % released, Avg: Avg of 90-A to 90-F. On the procedure:
The in vitro sustained release study of gatifloxacin was carried out using a Cabone ring (Wilton Brands LLC, Woodridge, Ill. 60517) of 12.7 mm. […] [At each time point, 20 ml from each of the six samples was withdrawn for sampling and replaced with 20 mL saline. The amount of gatifloxacin released was determined by UPLC. The release profile of gatifloxacin-containing liquid depot formulation is shown in Table 15, Table 16, and FIG. 14; gatifloxacin was released for at least 24 hours.

Series [4] in a line: In vitro release of prednisolone from liquid depot, samples 5A to 5F. The format is physicochemical. On the procedure: Six samples, 5A to 5F, each weighing at 48.2 mg, 48.5 mg, 48.1 mg, 49 mg, 51.7 mg, and 49.2 mg, respectively (average weight=49.1 mg; SD=1.34; % RSD=2.7) were incubated in 50 ml saline at 40° C. At each time point, 25 ml from each of the six samples was withdrawn for sampling and replaced with 25 ml saline.

For series [5] the following is noted: single 50 μL instillation.
Series [6] can be described thus: Vitamin E acetate in rabbit aqueous humor samples. The format is in vivo. The settings on record: days 1, 4, 7, 12; quantification limit 1.0 ng/mL.
A short description of series [7]: Diclofenac in tear samples after 50 μL liquid depot. In kind it is in vivo, NZW rabbits. The settings on record: one-time application of 50 μL. On the procedure: A formulation of the NSAID diclofenac was prepared by thoroughly mixing 10% diclofenac acid in a 90% liquid depot mixture of 80:20 tocopheryl acetate:Miglyol®. A one-time application of 50 μL of this formulation was instilled into the eyes of NZW rabbits, and then tear samples were collected and analyzed as described herein.

Where [8] appears, read: aqueous humor, Aqueous Humor Average (±SD), one 25 μL instillation of 10% dexamethasone depot.
The mark [9] stands for this setting: conjunctiva, Conjunctiva Average (±SD), one 25 μL instillation.
Where [10] appears, read: cornea, Cornea Average (±SD), one 25 μL instillation.
[11] abbreviates: iris/ciliary body, Iris/Ciliary Body Average (±SD), one 25 μL instillation.
The mark [12] stands for this setting: one instillation of the liquid depot.

Several values for one entry are separate records, joined by “and”; a condition that tells them apart may be missing. Identical values can stand only once. Entries after “also recorded” stand apart in the source; their conditions may differ. A value given as a limit tells only on which side of the number the result lay.

`C[C@@H]1C[C@H]2[C@@H]3CCC4=CC(=O)C=C[C@]4(C)[C@@]3(F)[C@@H](O)C[C@]2(C)[C@@]1(O)C(=O)CO` [Dexamethasone, dexamethasone]: the “Dexamethasone, Iris/Ciliary Body Tissue” value in series [1] (Day 14, per eye, one 25 μL instillation) is 1.21 ng/g and 2.00 ng/g; in series [1] (Hr 8, per eye, one 25 μL instillation), 83.0 ng/g and 86.0 ng/g and 150 ng/g and 113 ng/g and 157 ng/g. The “Dexamethasone, Iris/Ciliary Body Homog.” value in series [1] (Day 14, per eye, one 25 μL instillation, LOQ 0.2 ng/mL) is 0.241 ng/mL and 0.399 ng/mL; in series [1] (Day 21, per eye, one 25 μL instillation, LOQ 0.2 ng/mL) it was “BLOQ”; in series [1] (Hr 8, per eye, one 25 μL instillation, LOQ 0.2 ng/mL) it was 16.6 ng/mL and 17.2 ng/mL and 30.0 ng/mL and 22.5 ng/mL and 31.4 ng/mL. Moreover, the “Dexamethasone, Aqueous Humor Conc.” value in series [1] (Day 21, per eye, one 25 μL instillation of 10% dexamethasone depot, LOQ 0.5 ng/mL) was “BLOQ”. Also, the concentration at 3 day turned out to be 2.5 ng/mL in series [1] (setting [8]); 372 ng/g in series [1] (setting [9]); 176 ng/g in series [1] (setting [10]); 9.72 ng/g in series [1] (setting [11]); 6.48 ng/mL in series [2] (Day 3, 50 μL depot 10:72:18). Also, the concentration at 8 day in series [1] (setting [8]) was 7.53 ng/mL; in series [1] (setting [9]), 1630 ng/g; in series [1] (setting [10]) it was 284 ng/g; in series [1] (setting [11]), 8.15 ng/g. The concentration at 8 h in series [1] (aqueous humor, Aqueous Humor Average (±SD), Hr 8, one 25 μL instillation of 10% dexamethasone depot) is 44.8 ng/mL; in series [1] (conjunctiva, Conjunctiva Average (±SD), Hr 8, one 25 μL instillation), 1660 ng/g; in series [1] (cornea, Cornea Average (±SD), Hr 8, one 25 μL instillation) it was 560 ng/g; in series [1] (iris/ciliary body homogenate, Iris/Ciliary Body Homog., Hr 8, per eye, one 25 μL instillation, LOQ 0.2 ng/mL) it was 30.2 ng/mL; in series [1] (iris/ciliary body, Iris/Ciliary Body Average (±SD), Hr 8, one 25 μL instillation), 123 ng/g; in series [1] (iris/ciliary body, Iris/Ciliary Body Tissue, Hr 8, per eye, one 25 μL instillation) it was 151 ng/g. Also, the concentration at 24 h in series [1] (setting [8]) worked out at 2.47 ng/mL; in series [1] (setting [9]), 598 ng/g; in series [1] (setting [10]), 260 ng/g; in series [1] (setting [11]), 12.3 ng/g. In addition, the concentration at 14 day in series [1] (aqueous humor, Aqueous Humor Conc., Day 14, per eye, one 25 μL instillation of 10% dexamethasone depot, LOQ 0.5 ng/mL) was 0.677 ng/mL; in series [1] (conjunctiva, Conjunctiva Average (±SD), Day 14, one 25 μL instillation), 53.8 ng/g; in series [1] (cornea, Cornea Average (±SD), Day 14, one 25 μL instillation), 12.2 ng/g; in series [1] (iris/ciliary body homogenate, Iris/Ciliary Body Homog., Day 14, per eye, one 25 μL instillation, LOQ 0.2 ng/mL), 0.239 ng/mL; in series [1] (iris/ciliary body, Iris/Ciliary Body Average (±SD), Day 14, one 25 μL instillation), 1.47 ng/g; in series [1] (iris/ciliary body, Iris/Ciliary Body Tissue, Day 14, per eye, one 25 μL instillation) it was 1.2 ng/g. Further, the concentration at 21 day is 28.2 ng/g in series [1] (conjunctiva, Conjunctiva Average (±SD), Day 21, one 25 μL instillation); 8.14 ng/g in series [1] (cornea, Cornea Average (±SD), Day 21, one 25 μL instillation); 3.88 ng/g in series [1] (iris/ciliary body, Iris/Ciliary Body Average (±SD), Day 21, one 25 μL instillation). Besides, in series [1] (setting [12]), the “Time dexamethasone was in the aqueous humor” value is “at least 8 days”. In addition, in series [1] (setting [12]), the “Time dexamethasone was in the conjunctiva, cornea, and iris/ciliary body” value is on record as “at least 21 days”. The compound also yielded a concentration at 1 day in series [2] (Day 1, 50 μL depot 10:72:18) of 6.68 ng/mL. Further, the concentration at 5 day in series [2] (Day 5, 50 μL depot 10:72:18) turned out to be 4.14 ng/mL. The concentration at 7 day in series [2] (Day 7, 50 μL depot 10:72:18) turned out to be 4.08 ng/mL. Also, the concentration at 10 day in series [2] (Day 10, 50 μL depot 10:72:18) amounted to 3.2 ng/mL.

With `COc1c(N2CCNC(C)C2)c(F)cc2c(=O)c(C(=O)O)cn(C3CC3)c12` (stereo not shown) [Gatifloxacin, gatifloxacin], the “Average concentration of gatifloxacin released” value in series [3] (1 Hour) turned out to be 38.9 µg/mL; in series [3] (3 Hours), 61.9 µg/mL; in series [3] (24 Hours), 53.4 µg/mL. Besides, the “Gatifloxacin cumulative % released, Avg” value is on record as 32.3% in series [3] (1 Hour), 67.5% in series [3] (3 Hours) and 86.2% in series [3] (24 Hours). For the same compound, the “Time gatifloxacin was released in vitro” value in series [3] (40 mL saline at 40° C.) is on record as “at least 24 hours”.

For the compound `C[C@]12C=CC(=O)C=C1CC[C@@H]1[C@@H]2[C@@H](O)C[C@@]2(C)[C@H]1CC[C@]2(O)C(=O)CO` [Prednisolone, prednisolone], the “Prednisolone cumulative % released, Avg” value in series [4] (Day 0, Avg of 5A to 5F) was 0%. For the same compound, the “Average concentration of prednisolone released” value came to 32.6 µg/mL in series [4] (Day 1); 39.4 µg/mL in series [4] (Day 2); 38.1 µg/mL in series [4] (Day 3); 30.6 µg/mL in series [4] (Day 4); 19.6 µg/mL in series [4] (Day 5). Moreover, the “Amount of prednisolone released, Avg” value in series [4] (Day 1, Avg of 5A to 5F) worked out at 1630.3 µg; in series [4] (Day 2, Avg of 5A to 5F), 1153.1 µg; in series [4] (Day 3, Avg of 5A to 5F) it was 922.4 µg; in series [4] (Day 4, Avg of 5A to 5F), 577.5 µg; in series [4] (Day 5, Avg of 5A to 5F), 72.3 µg.

On to `CC(=O)Oc1c(C)c(C)c2c(c1C)CC[C@@](C)(CCC[C@H](C)CCC[C@H](C)CCCC(C)C)O2` [Vitamin E acetate, [(2R)-2,5,7,8-tetramethyl-2-[(4R,8R)-4,8,12-trimethyltridecyl]chroman-6-yl]acetate], for which the “Time vitamin E acetate was present in the tears of rabbit eyes” value in series [5] was “at least 12 days”. The “Vitamin E acetate in aqueous humor samples” value in series [6] was “not observed; also recorded: No detectable”.

For the compound `O=C(O)Cc1ccccc1Nc1c(Cl)cccc1Cl` [diclofenac, diclofenac acid], the “Time diclofenac was detected in the rabbit tear film” value in series [7] is recorded as not below 7 days.

(Values after patent US12280141B2, “Liquid depot for non-invasive sustained delivery of agents to the eye” (CHIBI, INC., priority 2018, dated 2025).)
